These results are taken from patent publication US4261892A, “2,4,6-Tris-(substituted-amino)-s-triazines” (American Cyanamid Company, priority 1979, dated 1981).

Series [1] has as its system Adjuvant Arthritis In Rats. The series can be described thus: Adjuvant-induced arthritis in rats (chronic inflammation accompanied by joint destruction). It is filed as in vivo, Royal Hart, Wistar strain rats. The following applies: for inhibition in vivo at 0.25 mg/kg / inhibition in vivo at 0.5 mg/kg / inhibition in vivo at 2 mg/kg / inhibition in vivo at 1 mg/kg / inhibition in vivo at 50 mg/kg: Rattus norvegicus. The protocol: Groups of three Royal Hart, Wistar strain rats weighing 200±10 grams each were injected intradermally in the right hind paw with Freund's adjuvant (dried human tubercle bacilli in a mineral oil vehicle) at a dose of 2 mg./kg. of body weight. […] On the 14th and 21st day post challenge the diameter of the injected paw (primary lesion) was measured by micrometer caliper. The volume of inflamed paws were estimated from these measurements and the results are expressed as percent inhibition of swelling as compared to controls. At the same time, the other inflamed sites, such as ears, paws and tail (secondary lesions) were observed and each rat was graded as to degree of inflammation and swelling present. The grading is based on a scale of 0 to 24 where 0 represents a complete absence of induced arthritic nodules and 24 represents the maximum degree of inflammation. The mean grade for each treated group is calculated and the effects of each compound are expressed as percent inhibition of the control grade.

Series [2] has as its system arthritic paw swelling / joint and bone deterioration. Conditions: literature (Wong et al., Bobalick et al.); cited from earlier work.
The mark [3] stands for this setting: po, 336 h, read-out: % Inhibition of Swelling (primary lesion) Day 14.
Setting [4] is: oral 0.25 mg./kg. once daily days 0-13, Day 14.
[5] abbreviates: oral 0.25 mg./kg. once daily days 0-13, Day 21.
The mark [6] stands for this setting: oral 0.5 mg./kg. once daily days 0-13, Day 14.
Setting [7] is: oral 0.5 mg./kg. once daily days 0-13, Day 21.
[8] abbreviates: oral 1 mg./kg. once daily days 0-13, Day 14.
The mark [9] stands for this setting: oral 1 mg./kg. once daily days 0-13, Day 21.
[10] abbreviates: oral 2 mg./kg. once daily days 0-13, Day 14.
The mark [11] stands for this setting: oral 2 mg./kg. once daily days 0-13, Day 21.
Setting [12] is: oral 50 mg./kg. once daily days 0-13, Day 14.
Setting [13] is: oral 50 mg./kg. once daily days 0-13, Day 21.
[14] abbreviates: oral 50 mg./kg. once daily days 0-13.
The mark [15] stands for this setting: po, 504 h, read-out: % Inhibition of Swelling (primary lesion) Day 21.

Where two headings read alike, the source gives them in different places.

Consider `COc1ccc2c(c1)c(CC(=O)O)c(C)n2C(=O)c1ccc(Cl)cc1` [Indomethacin], for which the inhibition in vivo at 0.25 mg/kg in series [1] (336 h, oral 0.25 mg./kg. once daily days 0-13, Day 14, read-out: % Inhibition of Swelling (primary lesion) Day 14) came out at 30%; in series [1] (504 h, oral 0.25 mg./kg. once daily days 0-13, Day 21, read-out: % Inhibition of Swelling (primary lesion) Day 21), 4%. The inhibition in vivo at 0.5 mg/kg came out at 40% in series [1] (336 h, oral 0.5 mg./kg. once daily days 0-13, Day 14, read-out: % Inhibition of Swelling (primary lesion) Day 14) and 20% in series [1] (504 h, oral 0.5 mg./kg. once daily days 0-13, Day 21, read-out: % Inhibition of Swelling (primary lesion) Day 21). Also, the inhibition in vivo at 2 mg/kg is 51% in series [1] (336 h, oral 2 mg./kg. once daily days 0-13, Day 14, read-out: % Inhibition of Swelling (primary lesion) Day 14) and 24% in series [1] (504 h, oral 2 mg./kg. once daily days 0-13, Day 21, read-out: % Inhibition of Swelling (primary lesion) Day 21). Moreover, the inhibition in vivo at 1 mg/kg turned out to be 19% in series [1] (504 h, oral 1 mg./kg. once daily days 0-13, Day 21, read-out: % Inhibition of Swelling (primary lesion) Day 21) and 46% in series [1] (setting [3]). In addition, the “% Inhibition of Control Grade (secondary lesion) Day 14” value is on record as 22% in series [1] (setting [4]), 25% in series [1] (setting [6]), 34% in series [1] (setting [8]) and 38% in series [1] (setting [10]). Also, the “Mean Weight Gain (grams) Day 14” value in series [1] (setting [4]) is on record as 51 grams; in series [1] (setting [6]), 53 grams; in series [1] (setting [8]) it was 63 grams; in series [1] (setting [10]) it was 68 grams. Also, the “% Inhibition of Control Grade (secondary lesion) Day 21” value in series [1] (setting [5]) worked out at 4%; in series [1] (setting [7]), 17%; in series [1] (setting [9]) it was 20%; in series [1] (setting [11]), 25%. The “Mean Weight Gain (grams) Day 21” value in series [1] (setting [5]) was determined as 57 grams; in series [1] (setting [7]), 51 grams; in series [1] (setting [9]), 65 grams; in series [1] (setting [11]), 68 grams. The “Dead/Treated at 21 Days” value in series [1] (oral 0.25 mg./kg. once daily days 0-13) is 0/9; in series [1] (oral 0.5 mg./kg. once daily days 0-13), 5/54; in series [1] (oral 1 mg./kg. once daily days 0-13) it was 9/54; in series [1] (oral 2 mg./kg. once daily days 0-13), 8/57. Further, the arthritic paw swelling result in series [2] is “inhibit arthritic paw swelling”. Besides, the “joint and bone deterioration” value in series [2] is “prevent joint and bone deterioration”.
`CC(C)(C)C(C)(C)Nc1nc(N[C@H]2C[C@@H]3CC[C@H]2C3)nc(NC(C)(C)C(C)(C)C)n1` (relative stereo) [N^2-(exo[2.2.1]norbornyl)-N^4, N^6-bis(1,1,2,2-tetramethylpropyl)melamine]: the inhibition in vivo at 50 mg/kg stood at 49% in series [1] (336 h, oral 50 mg./kg. once daily days 0-13, Day 14, read-out: % Inhibition of Swelling (primary lesion) Day 14) and 24% in series [1] (504 h, oral 50 mg./kg. once daily days 0-13, Day 21, read-out: % Inhibition of Swelling (primary lesion) Day 21). In series [1] (setting [12]), the “Mean Weight Gain (grams) Day 14” value stood at 97 grams. Besides, the “Mean Weight Gain (grams) Day 21” value in series [1] (setting [13]) came out at 93 grams. The “Dead/Treated at 21 Days” value in series [1] (setting [14]) is listed as 0/3.
For the compound `CC(C)(C)CC(C)(C)Nc1nc(NC(C)(C)CC(C)(C)C)nc(N2CC3CCC(CC3)C2)n1` [3-[4,6-bis(1,1,3,3-tetramethylbutylamino)-s-triazin-2-yl]-3-azabicyclo[3.2.2]nonane], the inhibition in vivo at 50 mg/kg stood at 59% in series [1] (setting [3]) and 23% in series [1] (setting [15]). In addition, in series [1] (setting [12]), the “Mean Weight Gain (grams) Day 14” value is 76 grams. Also, the “Mean Weight Gain (grams) Day 21” value in series [1] (setting [13]) amounted to 67 grams. In series [1] (setting [14]), the “Dead/Treated at 21 Days” value is 2/18.
`CC(C)(C)CC(C)(C)Nc1nc(NC(C)(C)C(C)(C)C)nc(N2CC3CCC(CC3)C2)n1` [3-[4-(1,1,3,3-tetramethylbutylamino)-6-[(1,1,2,2-tetramethylpropyl)amino]-s-triazin-2-yl]-3-azabicyclo[3.2.2]nonane]: the results for the inhibition in vivo at 50 mg/kg in series [1] (setting [3]) and in series [1] (setting [15]) were 74% and 42%, respectively. In addition, in series [1] (setting [12]), the “Mean Weight Gain (grams) Day 14” value is reported as 66 grams. Moreover, the “Mean Weight Gain (grams) Day 21” value in series [1] (setting [13]) was found to be 91 grams. The “Dead/Treated at 21 Days” value in series [1] (setting [14]) is recorded as 0/12.
The like results for `CC(C)(C)Nc1nc(NC(C)(C)C)nc(N2CC3CCC(CC3)C2)n1` [3-[4,6-bis(tert-butylamino)-s-triazin-2-yl]-3-azabicyclo[3.2.2]nonane] were, in that order, 61%, 22%, 87 grams, 69 grams and 1/9.
The like results for `CCCCNc1nc(N2CC3CCC(CC3)C2)nc(N2CC3CCC(CC3)C2)n1` [3,3'-(6-butylamino-s-triazin-2,4-diyl)bis-3-azabicyclo[3.2.2]nonane] were, in that order, 46%, 32%, 82 grams, 107 grams and 2/12.
